pIC50: −log10 of the molar value. Several values for one entry are separate records, joined by “and”; a condition that tells them apart may be missing. Equal entries are not always repeated. Where two headings read alike, the source gives them in different places.
Columns and labels:
[1] = Artificial membrane permeability assay (PAMPA); details: incubation 5 h, first table
Human H3122 NSCLC cells = test: Cell viability assay (CellTiter-Glo) in H3122 cells (Example 4); format: cell-based; details: NCI-H3122
Procedure: Human H3122 NSCLC cells were obtained and grown in RPMI in the presence of fetal bovine serum (10%), 2 mM L-glutamine and antibiotics (100 IU/ml penicillin and 100 μg/ml streptomycin, Sigma Aldrich.) Cells were maintained at 37° C., 5% CO2 atmosphere.
Cell viability was measured using the CellTiter-Glo® assay (Promega). In brief, cells were plated in 96-well plates in triplicate at optimal seeding density (determined empirically) and incubated at 37° C., 5% CO2 atmosphere for 24 hr prior to the addition of drug or vehicle (0.3% DMSO) to the culture medium. At the end of the assay, CellTiter-Glo was added to the wells per manufacturer's recommendation, shaken for two minutes and incubated for 10 minutes at room temperature. Luminescence (0.1 sec) was measured with a Victor II microplate reader (Perkin Elmer) and the resulting data were used to calculate cell viability, normalized to vehicle control.
Cells as described above were treated with exemplary SDC-TRAPs and their viability determined as above as well. The following table illustrates the results.

HER2 [2] = test: HER2 degradation in BT-474 cells (Example 3, Methods 1 and 2); format: cell-based, human
Description: This example illustrates how a HER2 degradation assay may be used as a test to determine and select Hsp90-targeting moieties suitable for use in SDC-TRAPs of the invention, and further illustrates the ability of SDC-TRAPs to target cells preferentially expressing Hsp90. Such a test may further be used to determine the Hsp90 binding ability of SDC-TRAPs of the invention, as well as through competitive binding assays and cell-based Hsp90 client protein degradation assays known in the art.
After treatment, each cytoplasmic sample is prepared from 1×10^6 cells by incubation of cell lysis buffer (#9803, Cell Signaling Technology) on ice for 10 minutes. The resulting supernatant used as the cytosol fractions is dissolved with sample buffer for SDS-PAGE and run on a SDS-PAGE gel, blotted onto a nitrocellulose membrane by using semi-dry transfer. Non-specific binding to nitrocellulose is blocked with 5% skim milk in TBS with 0.5% Tween at room temperature for 1 hour, then probed with anti-HER2/ErB2 mAb (rabbit IgG, #2242, Cell Signaling) and anti-Tubulin (T9026, Sigma) as housekeeping control protein. HRP-conjugated goat anti-rabbit IgG (H+L) and HRP-conjugated horse anti-mouse IgG (H+L) are used as secondary Ab (#7074#7076, Cell Signaling) and LumiGLO reagent, 20× Peroxide (#7003, Cell Signaling) is used for visualization. The Hsp90 client protein HER2 is degraded when cells are treated with Hsp90-targeting moieties or SDC-TRAPs of the invention.
BT-474 cells are plated in the interior 60 wells of a 96 well black clear bottom plate (20,000 cells/well) in DMEM medium, with DMEM media in the surrounding 36 wells, and incubated at 37° C. with 5% CO2 overnight. On the second day, concentration response curve source plates are produced (10 point, 3-fold dilution of compounds in DMSO) followed by a 1:30 dilution in an intermediate dilution plate containing DMEM. Compound is transferred from the intermediate plate to the cell plate at a dilution of 1:10. The cells are then incubated at 37° C. with 5% CO2 for 24 hours.
Cells are then fixed in 4% phosphate-buffered paraformaldehyde for 30 minutes at room temperature and then permeabilized by washing five times with 0.1% Triton X-100 in PBS for 5 minutes at room temperature on a shaker. […] Cells are washed five times with 0.1% Tween-20 in PBS for 5 minutes at room temperature on a shaker and incubated with fluorescently-labeled secondary antibody (LI-COR, #926-32211) diluted 1:1000 in blocking buffer, and DRAQ5 nuclear stain (Biostatus Limited, # DRAQ5) diluted 1:10,000, at room temperature on a shaker for 1 hour. Cells are washed 5 times with 0.1% Tween-20 in PBS for 5 minutes at room temperature on a shaker and imaged on a LI-COR Odyssey imaging station. The raw data is normalized to DRAQ5 and the HER2 EC50 is calculated using XLfit™.

H 3211 NSLC cells = test: IC50 of continuous and pulsed exposure (Examples 9 and 10); format: cell-based
HER2 [3] = test: HER2 degradation assay with BT-474 cell line (Example 12, FACS); format: cell-based, human
[4] = Stability in cell culture media (Example 18)
Procedure: 98 μL of DMEM+10% FBS, +1% P/S, +1.5 g/L sodium bicarbonate cell culture media was mixed with 2 μL of DMSO and aliquotted into 96-well plates at 250 μL per 0, 1, 2, and 18 hour time point.
3×50 μL media samples in 96 were held in 96-well plates at −80° C. until the last time point was extracted. 200 μL of methanol containing IS was added and mixed by vortex at 1500 rpm for 1.5 minutes at room temperature. The samples were centrifuged at 4400 rpm for 10 minutes at 8° C.

[5] = Mouse plasma stability protocol, up to 1 h (Examples 16-18)
[6] = Tissue Distribution Data for SDC-TRAP-0045
[7] = read-out: IC50, 72h-continuous, 7.5 × 10^3 cells/well, three replicate columns

CC(C)c1cc(-c2nnc(O)n2-c2ccc3c(ccn3CCN(C)C(=O)CCCC(=O)Nc3cccc4c3CN(C3CCC(=O)NC3=O)C4=O)c2)c(O)cc1O (stereo not drawn) [SDC-TRAP-0018, N1-(2-(5-(3-(2,4-dihydroxy-5-isopropylphenyl)-5-hydroxy-4H-1,2,4-triazol-4-yl)-1H-indol-1-yl)ethyl)-N5-(2-(2,6-dioxopiperidin-3-yl)-1-oxoisoindolin-4-yl)-N1-methylglutaramide]
Mass Retention [1]: 14.7% | pIC50 (Human H3122 NSCLC cells): 6.21

CCc1c2c(nc3ccc(OC(=O)N(C)CCN(C)C(=O)c4cc5cc(-n6c(O)nnc6-c6cc(C(C)C)c(O)cc6O)ccc5n4C)cc13)-c1cc3c(c(=O)n1C2)COC(=O)C3(O)CC (stereo not drawn) [SDC-TRAP-0010]
pIC50 (HER2 [2]): < 5.30 | pIC50 (H 3211 NSLC cells; [7]): 6.84 and 6.49 and 6.63 | pIC50 (HER2 [3]): < 5.30 | pIC50 (Human H3122 NSCLC cells): 6.63

CC(C)c1cc(-c2nnc(O)n2-c2ccc3c(ccn3CCOCCNC(=O)c3ccc(CCc4c[nH]c5nc(N)[nH]c(=O)c45)cc3)c2)c(O)cc1O [SDC-TRAP-0020, 4-(2-(2-amino-4-oxo-4,7-dihydro-3H-pyrrolo[2,3-d]pyrimidin-5-yl)ethyl)-N-(2-(2-(5-(3-(2,4-dihydroxy-5-isopropylphenyl)-5-hydroxy-4H-1,2,4-triazol-4-yl)-1H-indol-1-yl)ethoxy)ethyl)benzamide]
pIC50 (Human H3122 NSCLC cells): 5.76

CCc1c2c(nc3ccc(OCC(=O)N(C)CCn4ccc5cc(-n6c(O)nnc6-c6cc(C(C)C)c(O)cc6O)ccc54)cc13)-c1cc3c(c(=O)n1C2)COC(=O)C3(O)CC (stereo not drawn) [SDC-TRAP-0027, 2-((4,11-diethyl-4-hydroxy-3,14-dioxo-3,4,12,14-tetrahydro-1H-pyrano[3′,4′:6,7]indolizino[1,2-b]quinolin-9-yl)oxy)-N-(2-(5-(3-(2,4-dihydroxy-5-isopropylphenyl)-5-hydroxy-4H-1,2,4-triazol-4-yl)-1H-indol-1-yl)ethyl)-N-methylacetamide]
pIC50 (H 3211 NSLC cells; 72 h, read-out: IC50, 72h-continuous, 7.5 × 10^3 cells/well, three replicate columns): 6.01 | pIC50 (Human H3122 NSCLC cells): 5.87

CCc1c2c(nc3ccc(O)cc13)-c1cc3c(c(=O)n1C2)COC(=O)C3(CC)OC(=O)CCCNC(=O)c1cc2cc(-n3c(O)nnc3-c3cc(C(C)C)c(O)cc3O)ccc2n1C (stereo not drawn) [SDC-TRAP-0024, 4,11-diethyl-9-hydroxy-3,14-dioxo-3,4,12,14-tetrahydro-1H-pyrano[3′,4′:6,7]indolizino[1,2-b]quinolin-4-yl 4-(5-(3-(2,4-dihydroxy-5-isopropylphenyl)-5-hydroxy-4H-1,2,4-triazol-4-yl)-1-methyl-1H-indole-2-carboxamido)butanoate]
pIC50 (HER2 [2]): < 5.30 | pIC50 (H 3211 NSLC cells; read-out: IC50, 1h-pulse/71h-compound free, 7.5 × 10^3 cells/well, two replicate columns): 6.16 and 5.66 | pIC50 (H 3211 NSLC cells; [7]): > 7.92 and 6.93 and 6.98 | pIC50 (Human H3122 NSCLC cells): 7.00

CCc1c2c(nc3ccc(OC(=O)N4CCN(c5ccc(-n6c(O)nnc6-c6cc(C(C)C)c(O)cc6O)cc5)CC4)cc13)-c1cc3c(c(=O)n1C2)COC(=O)C3(O)CC (stereo not drawn) [SDC-TRAP-0045, 4,11-diethyl-4-hydroxy-3,14-dioxo-3,4,12,14-tetrahydro-1H-pyrano[3′,4′:6,7]indolizino[1,2-b]quinolin-9-yl 4-(4-(3-(2,4-dihydroxy-5-isopropylphenyl)-5-hydroxy-4H-1,2,4-triazol-4-yl)phenyl)piperazine-1-carboxylate]
pIC50 (HER2 [2]): 6.33 | Media (5 μM) % Remaining 19 h (37° C.) [4]: 50% | Media (5 μM) % Remaining 1 h (37° C.)§ ([4]; data from single parent peak): 72% | Media (5 μM) % Remaining 1 h (37° C.)* ([4]; sum of both peaks): 77% | % Remaining (1 h) ([5]; % Remaining of parent after 1 h incubation in mouse plasma at 37° C. (10 μM)): 45.0% | % Remaining (1 h, 37° C.) ([5]; mouse plasma, 1 h, 37° C.): 45% | Mouse (10 μM) % Remaining 1 h (37° C.)§ ([5]; mouse plasma, data from single parent peak): 34% | Mouse (10 μM) % Remaining 1 h (37° C.)* ([5]; mouse plasma, sum of both peaks): 45% | pIC50 (HER2 [3]): 6.33 | Plasma Conc. ([6]; Time (h) 0.083): 689000 nM | Tumor Conc. ([6]; Time (h) 0.083): 4.30 nmol/g of tissue | Tumor/Plasma Ratio ([6]; Time (h) 0.083): 0.00624 | Plasma Conc. ([6]; Time (h) 6): 1880 nM | Tumor Conc. ([6]; Time (h) 6): 2.55 nmol/g of tissue | Tumor/Plasma Ratio ([6]; Time (h) 6): 1.35 | Plasma Conc. ([6]; Time (h) 12): 141 nM | Tumor Conc. ([6]; Time (h) 12): 1.13 nmol/g of tissue | Tumor/Plasma Ratio ([6]; Time (h) 12): 8.02 | Plasma Conc. ([6]; Time (h) 24): 11.3 nM | Tumor Conc. ([6]; Time (h) 24): BQL | Plasma Conc. ([6]; Time (h) 48): BQL | Tumor Conc. ([6]; Time (h) 48): BQL

CC(C)c1cc(-c2nnc(O)n2-c2ccc3c(ccn3CCN(C)C(=O)NCC(=O)Nc3cccc4c3CN(C3CCC(=O)NC3=O)C4=O)c2)c(O)cc1O (stereo not drawn) [SDC-TRAP-0021, 2-(3-(2-(5-(3-(2,4-dihydroxy-5-isopropylphenyl)-5-hydroxy-4H-1,2,4-triazol-4-yl)-1H-indol-1-yl)ethyl)-3-methylureido)-N-(2-(2,6-dioxopiperidin-3-yl)-1-oxoisoindolin-4-yl)acetamide]
pIC50 (Human H3122 NSCLC cells): 6.14

CC(C)c1cc(-c2nnc(O)n2-c2ccc3c(ccn3CCC(=O)Nc3cccc4c3CN(C3CCC(=O)NC3=O)C4=O)c2)c(O)cc1O (stereo not drawn) [SDC-TRAP-0017, 3-(5-(3-(2,4-dihydroxy-5-isopropylphenyl)-5-hydroxy-4H-1,2,4-triazol-4-yl)-1H-indol-1-yl)-N-(2-(2,6-dioxopiperidin-3-yl)-1-oxoisoindolin-4-yl)propanamide]
pIC50 (Human H3122 NSCLC cells): < 5.52

CC(C)c1cc(-c2nnc(O)n2-c2ccc3c(ccn3CCN(C)C(=O)c3ccc(CCc4c[nH]c5nc(N)[nH]c(=O)c45)cc3)c2)c(O)cc1O [SDC-TRAP-0019, 4-(2-(2-amino-4-oxo-4,7-dihydro-3H-pyrrolo[2,3-d]pyrimidin-5-yl)ethyl)-N-(2-(5-(3-(2,4-dihydroxy-5-isopropylphenyl)-5-hydroxy-4H-1,2,4-triazol-4-yl)-1H-indol-1-yl)ethyl)-N-methylbenzamide]
pIC50 (Human H3122 NSCLC cells): 6.41

CC(C)c1cc(-c2nnc(O)n2-c2ccc3c(ccn3CCOCCNC(=O)CCCC(=O)Nc3cccc4c3CN(C3CCC(=O)NC3=O)C4=O)c2)c(O)cc1O (stereo not drawn) [SDC-TRAP-0015, N1-(2-(2-(5-(3-(2,4-dihydroxy-5-isopropylphenyl)-5-hydroxy-4H-1,2,4-triazol-4-yl)-1H-indol-1-yl)ethoxy)ethyl)-N5-(2-(2,6-dioxopiperidin-3-yl)-1-oxoisoindolin-4-yl)glutaramide]
pIC50 (H 3211 NSLC cells; [7]): 6.10 | pIC50 (Human H3122 NSCLC cells): 5.90

CCc1c2c(nc3ccc(OCC(=O)NCCn4ccc5cc(-n6c(O)nnc6-c6cc(C(C)C)c(O)cc6O)ccc54)cc13)-c1cc3c(c(=O)n1C2)COC(=O)C3(O)CC (stereo not drawn) [SDC-TRAP-0023, 2-((4,11-diethyl-4-hydroxy-3,14-dioxo-3,4,12,14-tetrahydro-1H-pyrano[3′,4′:6,7]indolizino[1,2-b]quinolin-9-yl)oxy)-N-(2-(5-(3-(2,4-dihydroxy-5-isopropylphenyl)-5-hydroxy-4H-1,2,4-triazol-4-yl)-1H-indol-1-yl)ethyl)acetamide]
pIC50 (H 3211 NSLC cells; [7]): > 7.92 | pIC50 (Human H3122 NSCLC cells): 6.86
